This is an account of results in article PMC7718273 (Scientific Reports, 2020).

Data set [1] deals with T1, hFAP (Homo sapiens, UniProt Q12884).
T1 construct: purchased R&D Systems 3715-SE
In words: FAP enzyme activity, fluorometric assay with AMC substrate. Format: biochemical. As for the experimental part: Recombinant human PREP (hPREP) (catalog no. 4308-SE), hDPP2/7 (catalog no. 3438-SE), hDPP9 (catalog no. 5419-SE), hFAP (catalog no. 3715-SE), and hDPP4 (catalog no. 9168-SE) proteins were from R&D Systems (Minneapolis, MN). Human FGF21 (catalog no. CRF159C) was from Cell Science (Newburyport, MA).
FAP enzyme activities were assayed in 20 mM Tris/HCl, 0.1 M NaCl, 1 mM EDTA (pH 8.0) in the presence of 40 μM Suc-Gly-Pro-Leu-Gly-Pro-AMC (#I-1350.0100, BACHEM, Bubendorf, Switzerland) and hFAP in a total volume of 100 µL. […] The inhibitor concentrations ranged from 100 μM to 0.03 nM, and its IC50 values were computed with commercially available curve-fitting programs such as the SigmaPlot. Other protease activities were determined in a similar manner.

The nature of data set [2]: Microsomal stability, human. The following applies: liver microsomes, pH 7.4, 0.5 mg/mL, NADPH, read-out: Microsomal stability (% remaining at 60 min). Format: in vitro ADME. As for the experimental part: (§1) Aliquots were then transferred in duplicate to: (i) a final concentration plate that was immediately quenched with 23.6 ng/mL internal standard (IS, chlorpropamide) in acetonitrile (ACN) or (ii) tubes, which were centrifuged for 5 min at 4℃ (14,000 rpm). The samples were subjected to LC–MS/MS analysis on an AB Sciex 4000 Q Trap hybrid triple quadrupole linear ion-trap MS (AB Sciex, Framingham, MA) coupled to an Agilent 1200 HPLC (Agilent Tech. Santa Clara, CA) with a reverse-phase Kinetex XB-C18 column (2.1 × 100 mm, 2.6 µm; Phenomenex). Mobile phases were comprised of 0.1% formic acid (FA) in water (A) and 0.1 FA in ACN (B). Data analysis was performed using […] (Ver. 1.6.1).
Background: Microsomes from liver hold many membrane-bound enzymes, among them those of drug oxidation.

Data set [3] can be described thus: Microsomal stability, rat. The format is in vitro ADME. The settings on record: liver microsomes, pH 7.4, rat (R), 0.5 mg/mL, NADPH, read-out: Microsomal stability (% remaining at 60 min). As for the experimental part: as §1
Data set [4] has as its target T2, CYP 1A2 (Homo sapiens, UniProt P05177).
T2 construct: from tissue; host or cells: human liver microsomes
Nature of the data set: CYPs inhibition, human liver microsome, substrate cocktail. Format: in vitro ADME. The following applies: 1st of 5 values; head prints H; footnote lists CYPs 1A2, 2C9, 2C19, 2D6, 3A4; read-out: CYPs inhibition (IC50, µM) (H/Mk/D/R/M). The source says:
(§2) Metabolites of the substrate probes were simultaneously analyzed by multiple-reaction monitoring using routine LC-MS/MS.

Data set [5] has as its target T3, CYP 2C19 (Homo sapiens, UniProt P33261).
T3 construct: from tissue; host or cells: human liver microsomes
The description is as above. The following applies: 3rd of 5 values; head prints D; footnote lists CYPs 1A2, 2C9, 2C19, 2D6, 3A4; read-out: CYPs inhibition (IC50, µM) (H/Mk/D/R/M). Format: in vitro ADME.
From the text: as §2

Data set [6] has as its target T4, CYP 2C9 (Homo sapiens, UniProt P11712).
T4 construct: from tissue; host or cells: human liver microsomes
Described as above. Format: in vitro ADME. The settings on record: 2nd of 5 values; head prints Mk; footnote lists CYPs 1A2, 2C9, 2C19, 2D6, 3A4; read-out: CYPs inhibition (IC50, µM) (H/Mk/D/R/M).
From the text: as §2

For data set [7], the target named is T5, CYP 2D6 (Homo sapiens, UniProt P10635).
T5 construct: from tissue; host or cells: human liver microsomes
The description is as above. The following applies: 4th of 5 values; head prints R; footnote lists CYPs 1A2, 2C9, 2C19, 2D6, 3A4; read-out: CYPs inhibition (IC50, µM) (H/Mk/D/R/M). Format: in vitro ADME.
From the text: as §2

Data set [8] has as its target T6, CYP 3A4 (Homo sapiens, UniProt P08684).
T6 construct: from tissue; host or cells: human liver microsomes
Described as above. Format: in vitro ADME. The following applies: 5th of 5 values; head prints M; footnote lists CYPs 1A2, 2C9, 2C19, 2D6, 3A4; read-out: CYPs inhibition (IC50, µM) (H/Mk/D/R/M).
From the text: as §2

Data set [9] can be described thus: Kinetic solubility. Format: physicochemical. The settings on record: 22 °C, kinetic from dmso stock. Here is the method: Kinetic solubility was conducted as described. […] The samples were agitated for 2 h using a plate shaker (500 rpm, 22℃). Approximately 150 µL of the resulting supernatant was transferred to a 96-well analysis plate and the calibration and test samples were analyzed by HPLC with a diode array detector (Agilent 1200 HPLC) comprising a reverse-phase Kinetex XB-C18 column (2.1 × 100 mm, 2.6 µm; Phenomenex). Mobile phases were composed of 0.1% FA in water (A) and 0.1% FA in ACN (B).

The subject of data set [10] is T7, endogenous mouse FAP.
T7 construct: from tissue; host or cells: mouse serum/plasma (ob/ob and C57BL/6J mice)
Nature of the data set: Acute study using ob/ob mice: plasma FAP activity. The format is in vivo. The settings on record: single oral dose 20 or 50 mg/kg, in 1 h, maintained up to 9 h.

Data set [11] relates to CDAHFD NASH mouse model. In words: In vivo study using CDAHFD mice (NASH model). Details: species or system C57BL/6J mice. As for the experimental part: C57BL/6J mice were fed normal chow diet (n = 5) or choline-deficient, L-amino acid-defined, high-fat diet (CDAHFD) for 4 weeks to induce NASH (n = 8–10/group). […] (a) Relative FAP activity was assessed by FRET-quench and serum FGF21 level at week 14. […] (c) Steatosis scores ranged from 0 to 3 (normal = 0, minimal = 1, moderate = 2, marked = 3) were determined. Hepatic steatosis and fibrosis (Picrosirius red stain) were analyzed in a blinded manner or by digital image analyzer. (d–e) Histological evaluations of liver tissue were performed in each group. Paraffin-embedded liver sections were stained with H&E (d) and Sirius red (e). Representative photographs of each group were presented. Images were obtained at 100x (Scale bar = 50 µm).
Male C57BL/6J mice (5 weeks of age) were fed with a CDAHFD consisting of 60% kcal fat and 0.1% methionine. […] For the CDAHFD model, compound treatments were started at the beginning of week 4 on the diet and continued until week 14. […] Liver tissue was then collected. All other measurements were done similarly as described above. Staining was performed using H&E and Picrosirius red as described previously. Areas of positive Sirius red were quantified by computer-based morphometric analysis.

[12] abbreviates: 10 and 30 mg/kg, week 14, vs vehicle.

≈ marks a conversion by molar mass, not a printed value. Read-outs that look alike come from different tables or passages of the source.

T1 sequence (Q12884 whole entry): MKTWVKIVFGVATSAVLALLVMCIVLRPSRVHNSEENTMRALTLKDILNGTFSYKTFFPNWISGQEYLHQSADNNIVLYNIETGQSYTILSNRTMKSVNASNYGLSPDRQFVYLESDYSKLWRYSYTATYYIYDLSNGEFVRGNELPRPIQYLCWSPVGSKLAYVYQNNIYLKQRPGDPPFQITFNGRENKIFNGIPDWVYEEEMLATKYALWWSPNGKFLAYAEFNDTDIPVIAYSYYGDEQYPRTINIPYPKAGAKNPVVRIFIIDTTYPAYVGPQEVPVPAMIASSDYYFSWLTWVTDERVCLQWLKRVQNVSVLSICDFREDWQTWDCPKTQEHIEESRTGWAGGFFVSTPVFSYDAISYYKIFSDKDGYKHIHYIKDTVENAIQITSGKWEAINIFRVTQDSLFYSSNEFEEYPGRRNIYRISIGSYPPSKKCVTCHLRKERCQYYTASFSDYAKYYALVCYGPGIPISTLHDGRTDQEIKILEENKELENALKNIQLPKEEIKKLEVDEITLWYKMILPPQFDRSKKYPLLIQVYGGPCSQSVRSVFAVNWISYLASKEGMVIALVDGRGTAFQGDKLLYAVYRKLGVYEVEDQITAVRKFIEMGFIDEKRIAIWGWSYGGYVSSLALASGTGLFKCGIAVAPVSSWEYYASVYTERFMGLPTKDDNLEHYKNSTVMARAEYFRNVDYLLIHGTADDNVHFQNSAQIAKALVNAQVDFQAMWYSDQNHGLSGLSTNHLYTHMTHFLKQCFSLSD
T2 sequence (P05177 whole entry): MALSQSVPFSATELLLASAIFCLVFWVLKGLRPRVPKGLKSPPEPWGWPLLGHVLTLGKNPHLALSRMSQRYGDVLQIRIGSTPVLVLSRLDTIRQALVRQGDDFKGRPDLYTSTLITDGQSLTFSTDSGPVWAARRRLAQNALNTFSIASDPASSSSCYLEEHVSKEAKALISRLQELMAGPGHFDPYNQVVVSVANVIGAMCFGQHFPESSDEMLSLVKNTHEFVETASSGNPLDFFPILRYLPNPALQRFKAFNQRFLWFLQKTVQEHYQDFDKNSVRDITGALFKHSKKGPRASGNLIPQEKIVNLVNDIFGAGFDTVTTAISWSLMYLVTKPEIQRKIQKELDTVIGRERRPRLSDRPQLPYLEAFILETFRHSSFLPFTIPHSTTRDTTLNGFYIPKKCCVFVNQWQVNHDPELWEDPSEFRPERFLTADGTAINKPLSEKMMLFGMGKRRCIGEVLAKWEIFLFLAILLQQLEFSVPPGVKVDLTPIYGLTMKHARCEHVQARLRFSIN
T3 sequence (P33261 whole entry): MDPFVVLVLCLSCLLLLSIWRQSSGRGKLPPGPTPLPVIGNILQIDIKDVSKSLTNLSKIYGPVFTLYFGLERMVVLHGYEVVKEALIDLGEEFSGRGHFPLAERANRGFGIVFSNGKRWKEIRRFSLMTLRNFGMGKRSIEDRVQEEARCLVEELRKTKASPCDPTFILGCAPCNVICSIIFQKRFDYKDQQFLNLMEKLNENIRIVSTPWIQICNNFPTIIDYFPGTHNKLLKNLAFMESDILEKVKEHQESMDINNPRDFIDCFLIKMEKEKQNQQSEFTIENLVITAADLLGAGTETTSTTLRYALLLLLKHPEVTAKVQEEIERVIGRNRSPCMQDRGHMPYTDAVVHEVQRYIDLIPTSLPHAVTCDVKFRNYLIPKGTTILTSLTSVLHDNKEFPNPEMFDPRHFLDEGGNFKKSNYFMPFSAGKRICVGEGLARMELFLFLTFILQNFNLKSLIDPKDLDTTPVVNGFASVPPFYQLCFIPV
T6 sequence (P08684 whole entry): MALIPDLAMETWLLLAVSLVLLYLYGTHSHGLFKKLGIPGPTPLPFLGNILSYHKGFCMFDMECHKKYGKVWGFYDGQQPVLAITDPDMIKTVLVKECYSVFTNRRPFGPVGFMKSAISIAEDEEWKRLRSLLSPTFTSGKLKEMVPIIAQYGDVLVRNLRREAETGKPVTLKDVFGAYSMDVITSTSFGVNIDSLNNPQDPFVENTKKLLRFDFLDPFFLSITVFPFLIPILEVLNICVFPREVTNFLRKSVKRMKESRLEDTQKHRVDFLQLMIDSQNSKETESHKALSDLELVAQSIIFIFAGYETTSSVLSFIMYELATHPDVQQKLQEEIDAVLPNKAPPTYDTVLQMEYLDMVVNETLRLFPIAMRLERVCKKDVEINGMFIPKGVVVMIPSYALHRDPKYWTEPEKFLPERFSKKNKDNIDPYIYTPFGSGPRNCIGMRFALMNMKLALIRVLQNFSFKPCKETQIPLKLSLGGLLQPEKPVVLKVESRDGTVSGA
T4 sequence (P11712 whole entry): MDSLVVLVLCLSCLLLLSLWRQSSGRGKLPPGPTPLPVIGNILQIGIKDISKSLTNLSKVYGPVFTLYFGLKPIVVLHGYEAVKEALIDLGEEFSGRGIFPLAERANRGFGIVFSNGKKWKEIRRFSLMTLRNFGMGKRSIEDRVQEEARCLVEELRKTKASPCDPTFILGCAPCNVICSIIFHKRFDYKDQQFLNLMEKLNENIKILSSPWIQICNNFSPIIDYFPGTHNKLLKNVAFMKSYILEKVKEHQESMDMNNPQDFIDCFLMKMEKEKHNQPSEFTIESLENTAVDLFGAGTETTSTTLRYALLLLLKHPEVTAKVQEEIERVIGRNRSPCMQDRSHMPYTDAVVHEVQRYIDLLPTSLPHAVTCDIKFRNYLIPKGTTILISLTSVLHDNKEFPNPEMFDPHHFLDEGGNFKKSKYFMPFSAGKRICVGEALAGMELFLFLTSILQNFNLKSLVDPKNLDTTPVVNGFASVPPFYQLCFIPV
T5 sequence (P10635 whole entry): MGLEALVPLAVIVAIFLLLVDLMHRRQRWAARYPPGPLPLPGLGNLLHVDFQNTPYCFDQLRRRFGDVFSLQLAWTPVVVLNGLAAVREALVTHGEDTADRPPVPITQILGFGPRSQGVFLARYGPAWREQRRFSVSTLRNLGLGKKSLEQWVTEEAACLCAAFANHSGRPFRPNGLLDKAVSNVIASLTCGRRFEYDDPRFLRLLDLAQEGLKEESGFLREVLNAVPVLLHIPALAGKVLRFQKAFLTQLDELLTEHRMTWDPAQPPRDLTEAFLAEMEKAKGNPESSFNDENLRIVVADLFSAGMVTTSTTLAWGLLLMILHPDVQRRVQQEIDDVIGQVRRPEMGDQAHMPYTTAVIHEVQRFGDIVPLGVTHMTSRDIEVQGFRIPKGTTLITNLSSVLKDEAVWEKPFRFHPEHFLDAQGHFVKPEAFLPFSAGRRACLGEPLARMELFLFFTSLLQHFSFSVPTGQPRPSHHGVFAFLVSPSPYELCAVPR

As usually defined, the fraction remaining is what is left of the initial amount, in per cent. By kinetic solubility is commonly meant the concentration staying in solution when a stock, usually in DMSO, is diluted into the medium. Regarding `N#Cc1ccc(Cc2nc(C(=O)NCC(=O)N3CC(F)(F)C[C@H]3C#N)cs2)cc1` [BR103354, (S)-N-(2-(2-cyano-4,4-difluoropyrrolidin-1-yl)-2-oxoethyl)-2-(4-cyanobenzyl)thiazole-4-carboxamide], the IC50 in [1] (40 μM Suc-Gly-Pro-Leu-Gly-Pro-AMC, 60 min at 37 °C, read-out: IC50 (nM) FAP) is 14 nM; in data set [1] (various assays: SDS-PAGE shift, AMC-coupled substrate, serum samples from different species, read-out: IC50 values on FAP, all measurements) it was 10 to 30 nM; in data set [4], > 50 µM; in data set [5] it was > 50 µM; in [6] it was > 50 µM; in data set [7] it was > 50 µM. Also, the IC50 in [8] is > 50 µM. Besides, the amount remaining at 1 h, 1 µM is 95% in data set [2] and 87% in [3]. Also, the solubility (kinetic) at 2 h was 81 µg/mL (≈ 195 µM) in data set [9] (pH 3.5, aqueous buffer); 79 µg/mL (≈ 190 µM) in data set [9] (simulated gastric fluid, pH 1.0); 78 µg/mL (≈ 188 µM) in data set [9] (phosphate buffer, pH 7.4, aqueous buffer). Besides, the “inhibition of plasma FAP activity” value in data set [10] is listed as “more than 70%”. In addition, the “liver fibrosis (Picrosirius red staining)” value in [11] (10 and 30 mg/kg) is listed as “significant reduction”. In [11] (10 and 30 mg/kg p.o. for 10 weeks), the “increase of serum FGF21 levels” value is reported as 1.5–1.9 folds. In addition, in data set [11] (10 and 30 mg/kg, score 0 to 3), the Steatosis scores result is reported as “significant reduction”. The TG entry in [11] (setting [12]) was “reduced”. Moreover, in data set [11] (setting [12]), the “blood ALT levels” value is “reduced”. Also, the “blood AST levels” value in data set [11] (setting [12]) was “reduced”. Further, the glucose levels entry in data set [11] (setting [12]) was “reduced”. The total cholesterol entry in data set [11] (setting [12]) is recorded as “reduced”.
